Values quoted from earlier work in paper PMC9851200, “Multiparameter phenotypic screening for endogenous TFEB and TFE3 translocation identifies novel chemical series modulating lysosome function” (Autophagy, 2022).

Key:
Set-up in all cases: method as in original PKIS2 published data
[1] = target: T1, kinases (KINOMEscan panel) (Homo sapiens, UniProt O75747); settings: Published KINOMEscan; ref original PKIS2 published data; cited from earlier work
T1 sequence (O75747 1-1486): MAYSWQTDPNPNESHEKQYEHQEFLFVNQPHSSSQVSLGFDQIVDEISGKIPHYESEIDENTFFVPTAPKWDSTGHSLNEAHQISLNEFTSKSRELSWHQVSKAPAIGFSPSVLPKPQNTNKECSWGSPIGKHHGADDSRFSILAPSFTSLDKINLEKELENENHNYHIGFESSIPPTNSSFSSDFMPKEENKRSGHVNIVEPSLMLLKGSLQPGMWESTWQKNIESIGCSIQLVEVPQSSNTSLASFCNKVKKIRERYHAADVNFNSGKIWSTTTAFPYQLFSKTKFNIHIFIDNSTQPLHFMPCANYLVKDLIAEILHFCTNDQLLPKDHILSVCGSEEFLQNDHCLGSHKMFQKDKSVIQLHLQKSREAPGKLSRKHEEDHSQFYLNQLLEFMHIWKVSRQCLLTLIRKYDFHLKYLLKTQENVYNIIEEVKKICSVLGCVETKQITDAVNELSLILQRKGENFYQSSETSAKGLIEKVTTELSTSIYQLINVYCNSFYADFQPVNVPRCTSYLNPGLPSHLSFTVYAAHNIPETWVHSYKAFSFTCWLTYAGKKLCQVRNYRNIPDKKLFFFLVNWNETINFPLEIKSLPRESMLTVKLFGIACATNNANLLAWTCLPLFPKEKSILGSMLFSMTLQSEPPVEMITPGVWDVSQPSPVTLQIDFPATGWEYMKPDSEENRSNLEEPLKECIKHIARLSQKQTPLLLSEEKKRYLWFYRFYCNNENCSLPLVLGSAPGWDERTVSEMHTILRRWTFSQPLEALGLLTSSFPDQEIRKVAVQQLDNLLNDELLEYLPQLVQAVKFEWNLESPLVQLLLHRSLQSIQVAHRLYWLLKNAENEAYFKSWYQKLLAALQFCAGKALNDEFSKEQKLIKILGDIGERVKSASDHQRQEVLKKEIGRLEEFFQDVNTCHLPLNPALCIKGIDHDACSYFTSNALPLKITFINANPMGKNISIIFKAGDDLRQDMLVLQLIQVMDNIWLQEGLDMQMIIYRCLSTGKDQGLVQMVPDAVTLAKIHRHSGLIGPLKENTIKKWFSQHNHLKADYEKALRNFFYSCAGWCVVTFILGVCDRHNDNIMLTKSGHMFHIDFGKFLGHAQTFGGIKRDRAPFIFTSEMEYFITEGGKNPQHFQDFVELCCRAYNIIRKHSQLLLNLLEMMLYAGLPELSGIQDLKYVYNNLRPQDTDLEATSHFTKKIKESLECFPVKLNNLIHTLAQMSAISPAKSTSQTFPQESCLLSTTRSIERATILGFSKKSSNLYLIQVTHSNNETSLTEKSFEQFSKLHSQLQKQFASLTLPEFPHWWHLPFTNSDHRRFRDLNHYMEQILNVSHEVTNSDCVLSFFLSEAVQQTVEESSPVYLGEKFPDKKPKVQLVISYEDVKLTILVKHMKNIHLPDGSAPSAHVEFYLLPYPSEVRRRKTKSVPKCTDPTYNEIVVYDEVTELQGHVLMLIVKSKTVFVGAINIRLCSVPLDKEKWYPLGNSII

[2] = target: kinases (KINOMEscan panel) (Homo sapiens, UniProt P53355); settings: kinase DAPK1; Published KINOMEscan; ref original PKIS2 published data; cited from earlier work
Chain of kinases (KINOMEscan panel) (Homo sapiens, UniProt P53355) (P53355 whole entry): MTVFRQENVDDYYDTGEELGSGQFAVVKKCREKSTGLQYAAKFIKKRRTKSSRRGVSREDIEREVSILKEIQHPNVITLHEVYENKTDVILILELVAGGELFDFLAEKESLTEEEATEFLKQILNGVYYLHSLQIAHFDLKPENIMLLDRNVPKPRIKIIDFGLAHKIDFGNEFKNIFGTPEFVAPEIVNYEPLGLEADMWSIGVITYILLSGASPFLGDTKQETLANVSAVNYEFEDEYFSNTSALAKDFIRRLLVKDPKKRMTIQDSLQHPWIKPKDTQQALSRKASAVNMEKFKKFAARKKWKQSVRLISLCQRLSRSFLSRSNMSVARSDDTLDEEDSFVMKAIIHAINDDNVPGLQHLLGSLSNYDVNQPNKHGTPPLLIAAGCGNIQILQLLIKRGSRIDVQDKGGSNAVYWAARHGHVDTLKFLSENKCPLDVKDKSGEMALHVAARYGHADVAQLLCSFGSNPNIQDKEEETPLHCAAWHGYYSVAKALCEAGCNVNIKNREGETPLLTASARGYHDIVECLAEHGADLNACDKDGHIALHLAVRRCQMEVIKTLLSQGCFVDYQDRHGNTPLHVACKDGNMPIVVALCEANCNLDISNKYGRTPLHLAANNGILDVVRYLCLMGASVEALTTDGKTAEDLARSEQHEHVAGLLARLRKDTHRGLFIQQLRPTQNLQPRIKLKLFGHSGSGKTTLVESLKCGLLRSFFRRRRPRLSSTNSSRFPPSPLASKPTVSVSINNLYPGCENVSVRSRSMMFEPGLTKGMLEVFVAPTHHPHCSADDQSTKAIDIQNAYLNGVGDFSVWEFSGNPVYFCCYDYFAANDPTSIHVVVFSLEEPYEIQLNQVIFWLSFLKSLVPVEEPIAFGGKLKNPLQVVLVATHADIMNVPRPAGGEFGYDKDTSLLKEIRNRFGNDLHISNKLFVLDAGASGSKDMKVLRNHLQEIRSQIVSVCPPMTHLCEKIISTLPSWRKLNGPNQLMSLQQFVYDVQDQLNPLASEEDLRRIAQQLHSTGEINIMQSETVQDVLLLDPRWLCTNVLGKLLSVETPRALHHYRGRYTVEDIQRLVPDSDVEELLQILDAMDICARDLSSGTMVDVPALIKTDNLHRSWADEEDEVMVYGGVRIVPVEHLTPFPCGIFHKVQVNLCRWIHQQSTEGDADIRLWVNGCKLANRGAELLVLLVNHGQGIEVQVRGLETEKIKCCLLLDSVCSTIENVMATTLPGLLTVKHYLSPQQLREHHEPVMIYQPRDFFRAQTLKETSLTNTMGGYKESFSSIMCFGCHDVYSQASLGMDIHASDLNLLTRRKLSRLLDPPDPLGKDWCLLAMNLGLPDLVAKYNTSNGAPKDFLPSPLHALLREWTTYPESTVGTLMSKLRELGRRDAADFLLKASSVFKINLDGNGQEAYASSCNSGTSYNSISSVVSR

[3] = target: kinases (KINOMEscan panel) (Homo sapiens, UniProt P06241); settings: kinase FYN; Published KINOMEscan; ref original PKIS2 published data; cited from earlier work
Chain of kinases (KINOMEscan panel) (Homo sapiens, UniProt P06241) (P06241 whole entry): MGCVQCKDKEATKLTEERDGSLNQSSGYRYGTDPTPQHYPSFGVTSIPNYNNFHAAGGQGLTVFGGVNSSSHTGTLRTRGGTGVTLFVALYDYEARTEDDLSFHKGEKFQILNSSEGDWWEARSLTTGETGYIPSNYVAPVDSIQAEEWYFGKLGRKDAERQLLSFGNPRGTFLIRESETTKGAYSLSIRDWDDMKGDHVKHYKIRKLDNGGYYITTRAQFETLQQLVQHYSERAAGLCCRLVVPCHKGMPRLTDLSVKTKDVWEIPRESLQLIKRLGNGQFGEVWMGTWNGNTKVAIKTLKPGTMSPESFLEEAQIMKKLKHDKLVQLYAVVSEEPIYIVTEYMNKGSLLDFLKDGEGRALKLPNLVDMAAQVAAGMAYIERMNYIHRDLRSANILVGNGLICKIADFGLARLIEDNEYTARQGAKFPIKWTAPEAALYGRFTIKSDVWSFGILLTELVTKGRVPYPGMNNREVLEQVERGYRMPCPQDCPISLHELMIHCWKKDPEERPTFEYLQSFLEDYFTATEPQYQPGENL

[4] = target: kinases (KINOMEscan panel) (Homo sapiens, UniProt Q9Y3S1); settings: WNK2; Published KINOMEscan; ref original PKIS2 published data; cited from earlier work
Chain of kinases (KINOMEscan panel) (Homo sapiens, UniProt Q9Y3S1) (Q9Y3S1 whole entry): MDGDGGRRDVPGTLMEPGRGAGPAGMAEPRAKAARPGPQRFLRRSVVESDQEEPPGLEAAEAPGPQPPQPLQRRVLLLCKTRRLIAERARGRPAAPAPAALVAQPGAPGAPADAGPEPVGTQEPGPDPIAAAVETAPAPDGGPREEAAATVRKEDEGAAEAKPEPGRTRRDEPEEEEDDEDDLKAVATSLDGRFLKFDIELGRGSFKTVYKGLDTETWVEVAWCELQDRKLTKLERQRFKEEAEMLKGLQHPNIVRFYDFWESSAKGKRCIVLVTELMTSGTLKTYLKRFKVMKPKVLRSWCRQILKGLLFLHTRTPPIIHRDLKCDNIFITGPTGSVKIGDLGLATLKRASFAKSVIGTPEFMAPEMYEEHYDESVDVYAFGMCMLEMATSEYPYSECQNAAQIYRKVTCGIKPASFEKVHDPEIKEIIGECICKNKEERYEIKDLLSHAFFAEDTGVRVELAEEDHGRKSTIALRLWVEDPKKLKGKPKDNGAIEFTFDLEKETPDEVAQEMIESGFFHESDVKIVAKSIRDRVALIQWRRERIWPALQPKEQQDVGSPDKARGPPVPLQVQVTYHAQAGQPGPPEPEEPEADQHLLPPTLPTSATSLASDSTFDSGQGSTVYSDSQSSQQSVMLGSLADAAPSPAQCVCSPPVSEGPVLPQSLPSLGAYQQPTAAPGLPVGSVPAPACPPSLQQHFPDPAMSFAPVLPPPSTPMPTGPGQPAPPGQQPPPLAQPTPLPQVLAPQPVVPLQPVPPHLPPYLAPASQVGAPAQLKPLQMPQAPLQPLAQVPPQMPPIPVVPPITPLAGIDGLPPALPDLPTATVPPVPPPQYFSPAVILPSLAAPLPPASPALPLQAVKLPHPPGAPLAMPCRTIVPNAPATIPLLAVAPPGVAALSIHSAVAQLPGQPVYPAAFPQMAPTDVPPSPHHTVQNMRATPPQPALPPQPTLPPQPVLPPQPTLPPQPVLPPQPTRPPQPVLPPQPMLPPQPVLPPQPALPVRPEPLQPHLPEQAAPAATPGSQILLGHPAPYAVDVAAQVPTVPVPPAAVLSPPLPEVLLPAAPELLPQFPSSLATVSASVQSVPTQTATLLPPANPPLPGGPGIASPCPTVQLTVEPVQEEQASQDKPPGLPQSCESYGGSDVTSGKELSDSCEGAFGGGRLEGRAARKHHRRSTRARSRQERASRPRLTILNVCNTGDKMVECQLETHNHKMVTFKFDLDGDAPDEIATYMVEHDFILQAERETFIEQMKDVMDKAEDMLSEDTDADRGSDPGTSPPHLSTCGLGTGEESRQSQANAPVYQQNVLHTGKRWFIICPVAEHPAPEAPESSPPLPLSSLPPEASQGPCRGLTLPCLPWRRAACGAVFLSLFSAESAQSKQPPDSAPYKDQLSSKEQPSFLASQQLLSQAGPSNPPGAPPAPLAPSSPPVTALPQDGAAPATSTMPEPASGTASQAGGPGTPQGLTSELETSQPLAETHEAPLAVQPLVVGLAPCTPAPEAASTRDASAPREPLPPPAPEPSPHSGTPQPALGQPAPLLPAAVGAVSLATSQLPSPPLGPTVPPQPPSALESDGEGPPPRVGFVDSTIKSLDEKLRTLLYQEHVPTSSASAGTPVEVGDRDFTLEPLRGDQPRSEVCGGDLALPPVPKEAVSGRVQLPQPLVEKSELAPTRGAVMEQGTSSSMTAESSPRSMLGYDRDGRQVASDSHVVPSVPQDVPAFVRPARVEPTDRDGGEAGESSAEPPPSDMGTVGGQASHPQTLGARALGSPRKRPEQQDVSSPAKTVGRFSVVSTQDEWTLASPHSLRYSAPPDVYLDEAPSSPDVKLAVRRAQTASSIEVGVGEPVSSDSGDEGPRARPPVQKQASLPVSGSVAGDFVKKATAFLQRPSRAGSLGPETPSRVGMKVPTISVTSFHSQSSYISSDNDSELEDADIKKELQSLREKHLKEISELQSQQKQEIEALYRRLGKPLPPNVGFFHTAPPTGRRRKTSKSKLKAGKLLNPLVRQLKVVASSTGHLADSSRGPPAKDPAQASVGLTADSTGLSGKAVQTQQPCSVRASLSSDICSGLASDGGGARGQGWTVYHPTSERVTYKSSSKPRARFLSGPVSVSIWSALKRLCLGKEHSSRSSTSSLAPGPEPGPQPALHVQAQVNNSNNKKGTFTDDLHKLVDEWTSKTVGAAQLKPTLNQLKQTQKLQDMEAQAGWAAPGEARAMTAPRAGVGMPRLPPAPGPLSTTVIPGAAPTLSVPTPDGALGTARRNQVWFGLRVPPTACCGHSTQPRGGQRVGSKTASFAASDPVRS

[5] = target: kinases (KINOMEscan panel) (Homo sapiens, UniProt P50750); settings: kinase CDK9; Published KINOMEscan; ref original PKIS2 published data; cited from earlier work
Chain of kinases (KINOMEscan panel) (Homo sapiens, UniProt P50750) (P50750 whole entry): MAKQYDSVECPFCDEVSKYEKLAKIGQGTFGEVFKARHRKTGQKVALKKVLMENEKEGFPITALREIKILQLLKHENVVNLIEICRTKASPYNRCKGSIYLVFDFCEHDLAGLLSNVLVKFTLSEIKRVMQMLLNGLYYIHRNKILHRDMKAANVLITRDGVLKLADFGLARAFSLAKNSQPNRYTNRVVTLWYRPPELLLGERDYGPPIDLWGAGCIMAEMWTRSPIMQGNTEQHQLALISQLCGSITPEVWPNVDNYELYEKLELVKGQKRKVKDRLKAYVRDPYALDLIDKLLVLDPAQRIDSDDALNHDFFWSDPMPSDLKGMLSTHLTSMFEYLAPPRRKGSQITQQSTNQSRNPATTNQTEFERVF

[6] = target: T2, kinases (KINOMEscan panel) (Homo sapiens, UniProt Q9UKI8); settings: kinase TLK1; Published KINOMEscan; ref original PKIS2 published data; cited from earlier work
T2 sequence (Q9UKI8 1-766): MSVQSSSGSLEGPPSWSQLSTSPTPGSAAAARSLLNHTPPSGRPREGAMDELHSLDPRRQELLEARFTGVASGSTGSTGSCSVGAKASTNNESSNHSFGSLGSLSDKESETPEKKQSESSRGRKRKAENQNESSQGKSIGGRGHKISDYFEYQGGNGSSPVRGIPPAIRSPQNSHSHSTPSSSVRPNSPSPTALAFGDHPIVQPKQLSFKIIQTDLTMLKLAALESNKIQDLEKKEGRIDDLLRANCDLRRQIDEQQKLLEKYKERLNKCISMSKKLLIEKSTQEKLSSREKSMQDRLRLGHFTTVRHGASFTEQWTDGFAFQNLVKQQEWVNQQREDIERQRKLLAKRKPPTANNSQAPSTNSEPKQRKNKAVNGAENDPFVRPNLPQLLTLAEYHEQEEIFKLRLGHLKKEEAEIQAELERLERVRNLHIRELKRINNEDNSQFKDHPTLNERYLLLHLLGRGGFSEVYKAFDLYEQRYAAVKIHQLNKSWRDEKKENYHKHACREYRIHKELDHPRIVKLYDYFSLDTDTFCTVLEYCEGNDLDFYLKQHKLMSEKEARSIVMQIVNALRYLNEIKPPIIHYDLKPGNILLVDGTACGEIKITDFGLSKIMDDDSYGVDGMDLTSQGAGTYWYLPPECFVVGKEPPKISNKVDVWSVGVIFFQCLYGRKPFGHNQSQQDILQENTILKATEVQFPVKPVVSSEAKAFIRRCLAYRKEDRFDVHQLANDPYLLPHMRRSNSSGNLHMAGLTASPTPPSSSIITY

Cc1cccc(-c2nc(Nc3ccncc3)c3ccccc3n2)n1 [NK215]
0: KINOMEscan PIK3C2G [1] | KINOMEscan DAPK1 [2] | KINOMEscan WNK2 [4] | KINOMEscan CDK9 [5] | KINOMEscan TLK1 [6]
13: KINOMEscan FYN [3]
